Results reported in patent publication US9113629B2, “4-amino-6-(4-substituted-phenyl)-picolinates and 6-amino-2-(4-substituted-phenyl)-pyrimidine-4-carboxylates and their use as herbicides” (DOW AGROSCIENCES LLC, priority 2013, dated 2015).
Read-outs that look alike come from different tables or passages of the source.

Columns and labels:
[1] = test system: Key Grass and Sedge Weeds as well as Grass Crops; assay: Post-emergent Test II herbicidal activity (Table 6); assay type: in vivo; conditions: post-emergence, 336 h; for pest or weed control at 70 g/ha: application rate 70 g ai/ha; for pest or weed control at 140 g/ha: application rate 140 g ai/ha
Outline: (§1)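 Test species were raised 7–21 d under greenhouse conditions until reaching the first or second true leaf, sprayed with formulated compound at 187 L/ha, and kept subirrigated to avoid wash-off. Fourteen days later, damage was rated visually on a 0–100% scale against untreated plants.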

[2] = test system: Key Broadleaf Weed and Crop Species; assay: Post-emergent Test II herbicidal activity (Table 5); assay type: in vivo; conditions: post-emergence, 336 h, post-emergent, 14 days after application; for pest or weed control at 70 g/ha: 70 g ai/ha; for pest or weed control at 140 g/ha: 140 g ai/ha
Outline: as §1

[3] = Triticum aestivum, TRZSS (wheat), read-out: Visual Growth Reduction (%) 14 Days After Application, TRZSS
[4] = CYPES: yellow nutsedge (Cyperus esculentus), read-out: Visual Growth Reduction (%) 14 Days After Application, CYPES
[5] = DIGSA: crabgrass (Digitaria sanguinalis), read-out: Visual Growth Reduction (%) 14 Days After Application, DIGSA
[6] = ECHCG: barnyardgrass (Echinochloa crus-galli), read-out: Visual Growth Reduction (%) 14 Days After Application, ECHCG
[7] = ORYSA: rice (Oryza sativa), read-out: Visual Growth Reduction (%) 14 Days After Application, ORYSA
[8] = SETFA: giant foxtail (Setaria faberi), read-out: Visual Growth Reduction (%) 14 Days After Application, SETFA
[9] = SORVU: grain sorghum (Sorghum vulgare), read-out: Visual Growth Reduction (%) 14 Days After Application, SORVU
[10] = TRZSS (wheat, Triticum aestivum), read-out: Visual Growth Reduction (%) 14 Days After Application, TRZSS
[11] = ZEAMX: maize, corn (Zea mays), read-out: Visual Growth Reduction (%) 14 Days After Application, ZEAMX
[12] = ABUTH: velvetleaf (Abutilon theophrasti), read-out: Visual Growth Reduction (%) 14 Days After Application ABUTH
[13] = AMARE: redroot pigweed (Amaranthus retroflexus), read-out: Visual Growth Reduction (%) 14 Days After Application AMARE
[14] = BRSNN: oilseed-rape, canola (Brassica napus), read-out: Visual Growth Reduction (%) 14 Days After Application BRSNN
[15] = CHEAL: lambsquarters (Chenopodium album), read-out: Visual Growth Reduction (%) 14 Days After Application CHEAL
[16] = EPHHL: wild poinsettia (Euphorbia heterophylla), read-out: Visual Growth Reduction (%) 14 Days After Application EPHHL
[17] = HELAN: sunflower (Helianthus annuus), read-out: Visual Growth Reduction (%) 14 Days After Application HELAN
[18] = VIOTR: wild pansy (Viola tricolor), read-out: Visual Growth Reduction (%) 14 Days After Application VIOTR

SMILES | pest or weed control at 70 g/ha [1, 4] | pest or weed control at 140 g/ha [1, 4] | pest or weed control at 70 g/ha [1, 5] | pest or weed control at 140 g/ha [1, 5] | pest or weed control at 70 g/ha [1, 6] | pest or weed control at 140 g/ha [1, 6] | pest or weed control at 70 g/ha [1, 7] | pest or weed control at 140 g/ha [1, 7] | pest or weed control at 70 g/ha [1, 8] | pest or weed control at 140 g/ha [1, 8] | pest or weed control at 70 g/ha [1, 9] | pest or weed control at 140 g/ha [1, 9] | pest or weed control at 70 g/ha [1, 11] | pest or weed control at 140 g/ha [1, 11] | pest or weed control at 70 g/ha [2, 12] | pest or weed control at 140 g/ha [2, 12] | pest or weed control at 70 g/ha [2, 13] | pest or weed control at 140 g/ha [2, 13] | pest or weed control at 70 g/ha [2, 14] | pest or weed control at 140 g/ha [2, 14] | further results
C=Cc1c(N)nc(-c2ccc(C#N)cc2F)nc1C(=O)OC [Compound 98, Methyl 6-amino-2-(4-cyano-2-fluorophenyl)-5-vinylpyrimidine-4-carboxylate] | 0 to 29% | 0 to 29% | 0 to 29% | 0 to 29% | 0 to 29% | 0 to 29% | 0 to 29% | 0 to 29% | 0 to 29% | 0 to 29% | 0 to 29% | 0 to 29% | 0 to 29% | 0 to 29% | 0 to 29% | 0 to 29% | 0 to 29% | 0 to 29% | 0 to 29% | 0 to 29% | pest or weed control at 70 g/ha [1, 3]: 0 to 29%; pest or weed control at 140 g/ha [1, 10]: 0 to 29%; pest or weed control at 70 g/ha [2, 15]: 0 to 29%; pest or weed control at 140 g/ha [2, 15]: 0 to 29%; pest or weed control at 70 g/ha [2, 16]: 0 to 29%; pest or weed control at 140 g/ha [2, 16]: 0 to 29%; pest or weed control at 70 g/ha [2, 17]: 0 to 29%; pest or weed control at 140 g/ha [2, 17]: 0 to 29%; pest or weed control at 70 g/ha [2, 18]: 0 to 29%; pest or weed control at 140 g/ha [2, 18]: 0 to 29%
COC(=O)c1nc(-c2ccc(C#N)cc2F)c(F)c(N)c1Cl [Compound 44, Methyl 4-amino-3-chloro-6-(4-cyano-2-fluorophenyl)-5-fluoropicolinate] | 30 to 44% | 45 to 59% | 0 to 29% | 0 to 29% | 0 to 29% | 0 to 29% | 0 to 29% | 0 to 29% | 0 to 29% | 0 to 29% | 0 to 29% | 0 to 29% | 0 to 29% | 0 to 29% | 30 to 44% | 60 to 74% | 75 to 84% | 95 to 100% | 0 to 29% | 0 to 29% | pest or weed control at 70 g/ha [1, 10]: 30 to 44%; pest or weed control at 140 g/ha [1, 10]: 30 to 44%; pest or weed control at 70 g/ha [2, 15]: 75 to 84%; pest or weed control at 140 g/ha [2, 15]: 85 to 94%; pest or weed control at 70 g/ha [2, 16]: 85 to 94%; pest or weed control at 140 g/ha [2, 16]: 95 to 100%; pest or weed control at 70 g/ha [2, 17]: 85 to 94%; pest or weed control at 140 g/ha [2, 17]: 95 to 100%; pest or weed control at 70 g/ha [2, 18]: 0 to 29%; pest or weed control at 140 g/ha [2, 18]: 0 to 29%
C=Cc1c(N)nc(-c2ccc(C(F)(F)F)c(F)c2)nc1C(=O)OC [Compound 137, Methyl 6-amino-2-(3-fluoro-4-(trifluoromethyl)phenyl)-5-vinylpyrimidine-4-carboxylate] | 45 to 59% | 45 to 59% | 0 to 29% | 0 to 29% | 0 to 29% | 0 to 29% | 0 to 29% | 0 to 29% | 0 to 29% | 0 to 29% | 0 to 29% | 0 to 29% | 0 to 29% | 0 to 29% | 75 to 84% | 85 to 94% | 0 to 29% | 0 to 29% | 0 to 29% | 0 to 29% | pest or weed control at 70 g/ha [1, 3]: 0 to 29%; pest or weed control at 140 g/ha [1, 3]: 0 to 29%; pest or weed control at 70 g/ha [2, 15]: 0 to 29%; pest or weed control at 140 g/ha [2, 15]: 45 to 59%; pest or weed control at 70 g/ha [2, 16]: 0 to 29%; pest or weed control at 140 g/ha [2, 16]: 60 to 74%; pest or weed control at 70 g/ha [2, 17]: 45 to 59%; pest or weed control at 140 g/ha [2, 17]: 60 to 74%; pest or weed control at 70 g/ha [2, 18]: 0 to 29%; pest or weed control at 140 g/ha [2, 18]: 0 to 29%
